Here are results for two compounds from PMC7038139, “Novel Peptide CM 7 Targeted c-Met with Antitumor Activity” (Molecules, 2020).

One assay relates to MKN-45 cells. Kind of assay: Cell proliferation assay, MKN-45. Format: cell-based, Human. Particulars: Crizotinib 40 nM, positive control; 4 days. The procedure: (§1) Human gastric cancer cell line MKN-45 cells were from the Chinese Academy of Medical Sciences, Beijing, China. Human gastric cancer cell line MKN-28 cells, the human glioma cell line U87 cells, and MDCK cells were obtained from the American Type Culture Collection (ATCC). The MKN-45 and MKN-28 cells were grown under a humidified atmosphere of 5% CO2 at 37 °C in RPMI 1640 medium (Biological Industries, Israel), supplemented with 10% fetal bovine serum (FBS, Biological Industries, Israel), 2 mmol/L L-glutamine (Gibco, Life Technologies, Grand Island, NY, USA), 100 U/mL penicillin, and 100 μg/mL streptomycin (Invitrogen, Carlsbad, CA, USA). MDCK and U87 cells were cultured under a humidified atmosphere of 5% CO2 at 37 °C in Dulbecco’s modified Eagle’s medium (DMEM) (Gibco, Life Technologies, Grand Island, NY, USA), supplemented with 10% FBS, 2 mmol/L L-glutamine (Gibco, Life Technologies, Grand Island, NY, USA), 100 U/mL penicillin, and 100 μg/mL streptomycin (Invitrogen, Carlsbad, CA, USA).
(§2) As described in the literature, MKN-45, MKN-28, and U87 cells were seeded into 48-well culture plates (6500 cells/well) and cultured overnight. […] After 4 days, the cells were trypsinized and counted by a cell counter. […]

The next assay concerns U87 cells. Kind of assay: Cell proliferation assay, U87 (HGF-stimulated). Format: cell-based, human. Particulars: Crizotinib 40 nM, positive control; 20 ng/mL HGF; 4 days. The procedure:
as §1, §2

The next assay concerns MKN-28 cells. Kind of assay: Cell proliferation assay, MKN-28. The assay is classed as cell-based, Human. Particulars: Crizotinib 40 nM, positive control; 4 days. The procedure: as §1, §2
In assay [1] the test system is c-Met-positive MKN-45 cells. The assay is described as follows: Flow cytometry binding to c-Met-positive MKN-45 cells. On the set-up: species or system Human. Particulars: 1 μM, 1 h, room temperature. The procedure:
as §1
(§3) A flow cytometry assay was used to evaluate the conjugation and affinity of the newly designed peptides CM 7, CM 14, or FITC alone to c-Met-positive MKN-45 cells and c-Met-negative MKN-28 cells. Briefly, MKN-45 and MKN-28 cells were detached by 0.25% trypsin and the final cell concentration was adjusted to 3 × 10^6 cells/mL. […]
For orientation: A flow cytometer gives signals particle by particle.

For assay [2], the system named is c-Met-negative MKN-28 cells. Kind of assay: Flow cytometry binding to c-Met-negative MKN-28 cells. On the set-up: species or system Human. Particulars: 1 μM, 1 h, room temperature. As to the method:
as §1, §3

Assay [3] relates to c-Met-positive MKN-45 cells. Kind of assay: Confocal microscope imaging of binding to MKN-45 cells. More on the design: species or system Human. Particulars: MKN-45 cells (fixed); 1 μM, 1 h, room temperature. The procedure: as §1
(§4) MKN-45 and MKN-28 cells were plated separately in a glass-bottom cell culture dish (NEST) with serum-free media overnight. The next day, cells were fixed with 4% paraformaldehyde for 20 min at room temperature. […]

For assay [4], the system named is c-Met-negative MKN-28 cells. The assay is described as follows: Confocal microscope imaging of binding to MKN-28 cells. On the set-up: species or system Human. Particulars: MKN-28 cells (fixed); 1 μM, 1 h, room temperature. The procedure: as §1, §4

“Also recorded” adds a separate entry of the source.

In the case of `C[C@@H](Oc1cc(-c2cnn(C3CCNCC3)c2)cnc1N)c1c(Cl)ccc(F)c1Cl` [Crizotinib, reference compound], the “Inhibition of cell proliferation” value in the assay with MKN-45 cells, with U87 cells and in the assay with MKN-28 cells was “significantly inhibit” in each case.

Consider `O=C1OC2(c3ccc(O)cc3Oc3cc(O)ccc32)c2ccc(N=C=S)cc21` [FITC, Fluorescein isothiocyanate isomer], for which the “Binding by flow cytometry (in words)” value in assay [1] and in assay [2] was “hardly combined” throughout. For the same compound, the figures for the “Binding / fluorescent signal by confocal imaging” value in assay [3] and in assay [4] were “could not bind to MKN-45 or MKN-28 cells” and “could not bind to MKN-45 or MKN-28 cells; also recorded: did not show any fluorescent signals”, respectively.
